Source: patent publication US9963456B2, “Pyrrolopyrimidine compound or salt thereof and compositions containing the pyrrolopyrimidine compound or salt thereof” (TAIHO PHARMACEUTICAL CO., LTD., priority 2014, dated 2018)

What follows are compounds tested against NAE (heterodimer of APPBP1 and UBA3) (Homo sapiens (Human), UniProt Q8TBC4) (assay: Nedd8 conjugation inhibitory activity (AlphaScreen assay)). Conditions: purified NAE, GST-UBC12, Biotin-Nedd8, ATP.
Type: biochemical

NAE (heterodimer of APPBP1 and UBA3), sequence (Q8TBC4 whole entry): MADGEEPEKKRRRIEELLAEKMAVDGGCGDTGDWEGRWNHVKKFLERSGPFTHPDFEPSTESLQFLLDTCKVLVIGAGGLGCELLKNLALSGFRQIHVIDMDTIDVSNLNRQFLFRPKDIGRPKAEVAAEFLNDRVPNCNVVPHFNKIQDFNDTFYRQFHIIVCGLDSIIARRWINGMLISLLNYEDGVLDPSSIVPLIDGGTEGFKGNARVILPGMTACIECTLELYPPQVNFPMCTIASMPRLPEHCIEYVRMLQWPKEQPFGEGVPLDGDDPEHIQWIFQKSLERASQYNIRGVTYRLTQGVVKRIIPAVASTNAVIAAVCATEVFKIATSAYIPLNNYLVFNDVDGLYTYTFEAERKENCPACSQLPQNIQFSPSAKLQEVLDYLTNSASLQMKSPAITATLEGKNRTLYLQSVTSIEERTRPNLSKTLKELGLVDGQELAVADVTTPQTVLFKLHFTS
NAE (heterodimer of APPBP1 and UBA3), sequence (Q13564 whole entry partner): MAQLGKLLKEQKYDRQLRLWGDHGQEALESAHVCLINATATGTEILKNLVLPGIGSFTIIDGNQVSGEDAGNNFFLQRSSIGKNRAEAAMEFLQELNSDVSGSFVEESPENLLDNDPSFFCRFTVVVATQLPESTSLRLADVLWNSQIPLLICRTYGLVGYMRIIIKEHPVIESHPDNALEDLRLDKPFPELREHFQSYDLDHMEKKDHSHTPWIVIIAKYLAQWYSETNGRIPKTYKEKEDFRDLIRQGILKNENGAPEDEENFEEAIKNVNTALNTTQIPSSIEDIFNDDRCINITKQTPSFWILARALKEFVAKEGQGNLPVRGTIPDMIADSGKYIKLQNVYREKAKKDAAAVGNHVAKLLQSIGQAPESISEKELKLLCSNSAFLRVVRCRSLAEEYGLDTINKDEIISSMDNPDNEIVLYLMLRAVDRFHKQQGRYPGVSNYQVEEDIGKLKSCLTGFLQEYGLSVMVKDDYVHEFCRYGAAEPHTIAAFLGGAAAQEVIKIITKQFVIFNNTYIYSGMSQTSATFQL

SMILES	IC50 [µM]
Cc1ccccc1-c1nc(-c2cn([C@@H]3O[C@H](CNS(N)(=O)=O)[C@@H](O)[C@H]3O)c3ncnc(N)c23)cs1 [Example 2, 4-[4-Amino-7-[(2R,3R,4S,5R)-3,4-dihydroxy-5-[(sulfamoylamino)methyl]tetrahydrofuran-2-yl]pyrrolo[2,3-d]pyrimidin-5-yl]-2-(o-tolyl)thiazole]	0.0071
Nc1ncnc2c1c(C#CC1(c3ccccc3)CC1)cn2[C@@H]1O[C@H](CNS(N)(=O)=O)[C@@H](O)[C@H]1O [Example 10, 4-Amino-7-[(2R,3R,4S,5R)-3,4-dihydroxy-5-[(sulfamoylamino)methyl]tetrahydrofuran-2-yl]-5-[2-(1-phenylcyclopropyl)ethynyl]pyrrolo[2,3-d]pyrimidine]	0.024
CCOc1cc(N2CCCCC2)cc(F)c1C#Cc1cn([C@@H]2C[C@H](CNS(N)(=O)=O)[C@@H](O)[C@H]2O)c2ncnc(N)c12 [Example 106, 4-Amino-7-[(1R,2S,3R,4R)-2,3-dihydroxy-4-[(sulfamoylamino)methyl]cyclopentyl]-5-[2-[2-ethoxy-6-fluoro-4-(1-piperidyl)phenyl]ethynyl]pyrrolo[2,3-d]pyrimidine]	0.028
CCOc1cc(N2C3CCC2COC3)cc(F)c1C#Cc1cn([C@@H]2C[C@H](CNS(N)(=O)=O)[C@@H](O)[C@H]2O)c2ncnc(N)c12 [Example 110, 8-[4-[2-[4-Amino-7-[(1R,2S,3R,4R)-2,3-dihydroxy-4-[(sulfamoylamino)methyl]cyclopentyl]pyrrolo[2,3-d]pyrimidin-5-yl]ethynyl]-3-ethoxy-5-fluoro-phenyl]-3-oxa-8-azabicyclo[3,2,1]octane]	0.013
CCOc1cc(N2CCOCC2)cc(F)c1C#Cc1cn([C@@H]2C[C@H](CNS(N)(=O)=O)[C@@H](O)[C@H]2O)c2ncnc(N)c12 [Example 112, 4-[4-[2-[4-Amino-7-[(1R,2S,3R,4R)-2,3-dihydroxy-4-[(sulfamoylamino)methyl]cyclopentyl]pyrrolo[2,3-d]pyrimidin-5-yl]ethynyl]-3-ethoxy-5-fluoro-phenyl]morpholine]	0.015
Nc1ncnc2c1c(C#Cc1c(F)cc(N3CC[C@@H](F)C3)cc1F)cn2[C@@H]1C[C@H](CNS(N)(=O)=O)[C@@H](O)[C@H]1O [Example 115, 4-Amino-5-[2-[2,6-difluoro-4-[(3R)-3-fluoropyrrolidin-1-yl]phenyl]ethynyl]-7-[(1R,2S,3R,4R)-2,3-dihydroxy-4-[(sulfamoylamino)methyl]cyclopentyl]pyrrolo[2,3-d]pyrimidine]	0.004
Nc1ncnc2c1c(C#Cc1cccc3c1S(=O)(=O)CC3)cn2[C@@H]1C[C@H](CNS(N)(=O)=O)[C@@H](O)[C@H]1O [Example 117, 4-Amino-7-[(1R,2S,3R,4R)-2,3-dihydroxy-4-[(sulfamoylamino)methyl]cyclopentyl]-5-[2-(1,1-dioxo-2,3-dihydrobenzothiophen-7-yl)ethynyl]pyrrolo[2,3-d]pyrimidine]	0.0043
Nc1ncnc2c1c(C#Cc1c(F)cc(N3CCC3)cc1F)cn2[C@@H]1C[C@H](CNS(N)(=O)=O)[C@@H](O)[C@H]1O [Example 118, 4-Amino-5-[2-[4-(azetidin-1-yl)-2,6-difluoro-phenyl]ethynyl]-7-[(1R,2S,3R,4R)-2,3-dihydroxy-4-[(sulfamoylamino)methyl]cyclopentyl]pyrrolo[2,3-d]pyrimidine]	0.0068
Nc1ncnc2c1c(C#Cc1c(F)cc(N3CCC(O)CC3)cc1F)cn2[C@@H]1C[C@H](CNS(N)(=O)=O)[C@@H](O)[C@H]1O [Example 119, 4-Amino-5-[2-[2,6-difluoro-4-(4-hydroxy-1-piperidyl)phenyl]ethynyl]-7-[(1R,2S,3R,4R)-2,3-dihydroxy-4-[(sulfamoylamino)methyl]cyclopentyl]pyrrolo[2,3-d]pyrimidine]	0.0042
Nc1ncnc2c1c(C#Cc1cccc3c1S(=O)(=O)CCC3)cn2[C@@H]1C[C@H](CNS(N)(=O)=O)[C@@H](O)[C@H]1O [Example 123, 4-Amino-7-[(1R,2S,3R,4R)-2,3-dihydroxy-4-[(sulfamoylamino)methyl]cyclopentyl]-5-[2-(1,1-dioxo-3,4-dihydro-2H-thiochromen-8-yl)ethynyl]pyrrolo[2,3-d]pyrimidine]	0.0091
CCOc1cccc(F)c1C#Cc1cn([C@H]2C[C@H](O)[C@@H](CNS(N)(=O)=O)O2)c2ncnc(N)c12 [Example 127, 4-Amino-5-[2-(2-ethoxy-6-fluoro-phenyl)ethynyl]-7-[(2R,4S,5R)-4-hydroxy-5-[(sulfamoylamino)methyl]tetrahydrofuran-2-yl]pyrrolo[2,3-d]pyrimidine]	0.019
CSc1cccc(F)c1C#Cc1cn([C@@H]2C=C(CNS(N)(=O)=O)[C@@H](O)[C@H]2O)c2ncnc(N)c12 [Example 130, 4-Amino-7-[(1R,4R,5S)-4,5-dihydroxy-3-[(sulfamoylamino)methyl]cyclopent-2-en-1-yl]-5-[2-(2-fluoro-6-methylsulfanyl-phenyl)ethynyl]pyrrolo[2,3-d]pyrimidine]	0.004
Nc1ncnc2c1c(C#Cc1ccccc1)cn2[C@H]1C[C@H](O)[C@@H](COS(N)(=O)=O)O1 [Example 134, [(2R,3S,5R)-5-[4-Amino-5-(2-phenylethynyl)pyrrolo[2,3-d]pyrimidin-7-yl]-3-hydroxy-tetrahydrofuran-2-yl]methyl sulfamate]	0.018
Cc1ccc(Cn2cc(-c3cn([C@H]4C[C@H](O)[C@@H](COS(N)(=O)=O)O4)c4ncnc(N)c34)cn2)cc1C [Example 137, [(2R,3S,5R)-5-[4-Amino-5-[1-[(3,4-dimethylphenyl)methyl]pyrazol-4-yl]pyrrolo[2,3-d]pyrimidin-7-yl]-3-hydroxy-tetrahydrofuran-2-yl]methyl sulfamate]	0.019
Cc1ccc(Cn2cc(-c3cn([C@@H]4C[C@H](COS(N)(=O)=O)[C@@H](O)C4)c4ncnc(N)c34)cn2)cc1C [Example 138, [(1R,2S,4R)-4-[4-Amino-5-[1-[(3,4-dimethylphenyl)methyl]pyrazol-4-yl]pyrrolo[2,3-d]pyrimidin-7-yl]-2-hydroxy-cyclopentyl]methyl sulfamate]	0.0065
Cc1ccccc1-c1nc(-c2cn([C@H]3C[C@H](O)[C@@H](COS(N)(=O)=O)O3)c3ncnc(N)c23)cs1 [Example 139, [(2R,3S,5R)-5-[4-Amino-5-[2-(o-tolyl)thiazol-4-yl]pyrrolo[2,3-d]pyrimidin-7-yl]-3-hydroxy-tetrahydrofuran-2-yl]methyl sulfamate]	0.017
CCS(=O)(=O)c1cccc(F)c1C#Cc1cn([C@@H]2C[C@H](CNS(N)(=O)=O)[C@@H](O)[C@H]2O)c2ncnc(N)c12 [Example 142, 4-Amino-7-[(1R,2S,3R,4R)-2,3-dihydroxy-4-[(sulfamoylamino)methyl]cyclopentyl]-5-[2-(2-ethylsulfonyl-6-fluoro-phenyl)ethynyl]pyrrolo[2,3-d]pyrimidine]	0.009

Each compound was assayed against carbonic anhydrase II (Homo sapiens (Human), UniProt P00918) (assay: Carbonic anhydrase II enzyme activity inhibition (4-NPA esterase activity)). Conditions: 4-nitrophenyl acetate esterase activity, absorbance at 405 nm.
Type: biochemical

IC50 [µM]	SMILES
> 1	Nc1ncnc2c1c(C#Cc1ccc(OCc3ccccc3)cc1)cn2[C@@H]1O[C@H](CNS(N)(=O)=O)[C@@H](O)[C@H]1O [Example 3, 4-Amino-5-[2-(4-benzyloxyphenyl)ethynyl]-7-[(2R,3R,4S,5R)-3,4-dihydroxy-5-[(sulfamoylamino)methyl]tetrahydrofuran-2-yl]pyrrolo[2,3-d]pyrimidine]
> 1	Nc1ncnc2c1c(C#Cc1cccc3ccccc13)cn2[C@@H]1O[C@H](CNS(N)(=O)=O)[C@@H](O)[C@H]1O [Example 6, 4-Amino-7-[(2R,3R,4S,5R)-3,4-dihydroxy-5-[(sulfamoylamino)methyl]tetrahydrofuran-2-yl]-5-[2-(1-naphthyl)ethynyl]pyrrolo[2,3-d]pyrimidine]
> 1	Nc1ncnc2c1c(-c1coc(-c3ccccc3)n1)cn2[C@@H]1O[C@H](CNS(N)(=O)=O)[C@@H](O)[C@H]1O [Example 12, 4-[4-Amino-7-[(2R,3R,4S,5R)-3,4-dihydroxy-5-[(sulfamoylamino)methyl]tetrahydrofuran-2-yl]pyrrolo[2,3-d]pyrimidin-5-yl]-2-phenyl-oxazol]
> 1	Nc1ncnc2c1c(C#Cc1ccccc1OC(F)(F)F)cn2[C@@H]1O[C@H](CNS(N)(=O)=O)[C@@H](O)[C@H]1O [Example 14, 4-Amino-7-[(2R,3R,4S,5R)-3,4-dihydroxy-5-[(sulfamoylamino)methyl]tetrahydrofuran-2-yl]-5-[2-[2-(trifluoromethoxy)phenyl]ethynyl]pyrrolo[2,3-d]pyrimidine]
> 1	Nc1ncnc2c1c(C#CCc1ccccc1F)cn2[C@@H]1O[C@H](CNS(N)(=O)=O)[C@@H](O)[C@H]1O [Example 36, 4-Amino-7-[(2R,3R,4S,5R)-3,4-dihydroxy-5-[(sulfamoylamino)methyl]tetrahydrofuran-2-yl]-5-[3-(2-fluorophenyl)prop-1-ynyl]pyrrolo[2,3-d]pyrimidine]
> 1	Nc1ncnc2c1c(C#Cc1c(F)cc(N3CC(O)C3)cc1F)cn2[C@@H]1O[C@H](CNS(N)(=O)=O)[C@@H](O)[C@H]1O [Example 39, 4-Amino-5-[2-[2,6-difluoro-4-(3-hydroxyazetidin-1-yl)phenyl]ethynyl]-7-[(2R,3R,4S,5R)-3,4-dihydroxy-5-[(sulfamoylamino)methyl]tetrahydrofuran-2-yl]pyrrolo[2,3-d]pyrimidine]
> 1	Nc1ncnc2c1c(C#CCC1CCCCC1)cn2[C@@H]1O[C@H](CNS(N)(=O)=O)[C@@H](O)[C@H]1O [Example 50, 4-Amino-5-(3-cyclohexylprop-1-ynyl)-7-[(2R,3R,4S,5R)-3,4-dihydroxy-5-[(sulfamoylamino)methyl]tetrahydrofuran-2-yl]pyrrolo[2,3-d]pyrimidine]
> 1	CCOc1cccc(F)c1C#Cc1cn([C@@H]2C=C(CNS(N)(=O)=O)[C@@H](O)[C@H]2O)c2ncnc(N)c12 [Example 129, 4-Amino-7-[(1R,4R,5S)-4,5-dihydroxy-3-[(sulfamoylamino)methyl]cyclopent-2-en-1-yl]-5-[2-(2-ethoxy-6-fluoro-phenyl)ethynyl]pyrrolo[2,3-d]pyrimidine]

SMILES	IC50 [µM]
Cc1ccccc1-c1nc(-c2cn([C@@H]3O[C@H](CNS(N)(=O)=O)[C@@H](O)[C@H]3O)c3ncnc(N)c23)cs1 [Example 2, 4-[4-Amino-7-[(2R,3R,4S,5R)-3,4-dihydroxy-5-[(sulfamoylamino)methyl]tetrahydrofuran-2-yl]pyrrolo[2,3-d]pyrimidin-5-yl]-2-(o-tolyl)thiazole]	> 1
Nc1ncnc2c1c(C#CC1(c3ccccc3)CC1)cn2[C@@H]1O[C@H](CNS(N)(=O)=O)[C@@H](O)[C@H]1O [Example 10, 4-Amino-7-[(2R,3R,4S,5R)-3,4-dihydroxy-5-[(sulfamoylamino)methyl]tetrahydrofuran-2-yl]-5-[2-(1-phenylcyclopropyl)ethynyl]pyrrolo[2,3-d]pyrimidine]	> 1
